Assay results: PubChem BioAssay AID192 (DTP/NCI, 2004)
Where “and” joins values, the source holds several entries; their conditions need not be identical. Identical values can stand only once. Inconclusive results and toxic doses are left out. Rule for the calls: active = survival T/C of 150% or more; inactive = T/C below 125% in these data.

System: BDF1 mice, B16 melanoma ip, median survival T/C
Assay: NCI In Vivo Anticancer Drug Screen. Data for tumor model B16 Melanoma (intraperitoneal) in B6D2F1 (BDF1) mice
Conditions: endpoint: median survival time, higher = longer survival
How it was run: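 Survival or tumor size is measured after treatment of tumor-bearing mice and normalised to the vehicle-treated control group.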

[1] = dose: 25.0 mg/kg/injection, schedule: Q01DX009 (ip), vehicle: saline with Tween-80
[2] = dose: 50.0 mg/kg/injection, schedule: Q01DX009 (ip), vehicle: saline with Tween-80
[3] = dose: 100.0 mg/kg/injection, schedule: Q01DX009 (ip), vehicle: saline with Tween-80
[4] = dose: 400.0 mg/kg/injection, schedule: Q01DX009 (ip), vehicle: saline
[5] = dose: 100.0 mg/kg/injection, schedule: Q01DX009 (ip), vehicle: Klucel (hydroxypropylcellulose) (HPC)
[6] = dose: 50.0 mg/kg/injection, schedule: Q01DX009 (ip), vehicle: saline
[7] = dose: 100.0 mg/kg/injection, schedule: Q01DX009 (ip), vehicle: saline
[8] = dose: 3.12 mg/kg/injection, schedule: Q01DX009 (ip), vehicle: saline
[9] = dose: 6.25 mg/kg/injection, schedule: Q01DX009 (ip), vehicle: saline
[10] = dose: 12.5 mg/kg/injection, schedule: Q01DX009 (ip), vehicle: saline
[11] = dose: 25.0 mg/kg/injection, schedule: Q01DX009 (ip), vehicle: saline
[12] = dose: 25.0 mg/kg/injection, schedule: Q01DX009 (ip), vehicle: Klucel (hydroxypropylcellulose) (HPC)
[13] = dose: 50.0 mg/kg/injection, schedule: Q01DX009 (ip), vehicle: Klucel (hydroxypropylcellulose) (HPC)

Measured: T/C

CCCCC[C@H](O)/C=C/[C@H]1[C@H](O)CC(=O)[C@@H]1C/C=C\CCCC(=O)O
inactive: dose: 0.75 mg/kg/injection, schedule: Q04DX002 (ip), vehicle: Klucel (hydroxypropylcellulose) (HPC) 108 % of control | dose: 1.5 mg/kg/injection, schedule: Q04DX002 (ip), vehicle: Klucel (hydroxypropylcellulose) (HPC) 97 % of control | dose: 3.0 mg/kg/injection, schedule: Q04DX002 (ip), vehicle: Klucel (hydroxypropylcellulose) (HPC) 96 % of control | dose: 6.0 mg/kg/injection, schedule: Q04DX002 (ip), vehicle: Klucel (hydroxypropylcellulose) (HPC) 92 % of control | dose: 12.5 mg/kg/injection, schedule: Q04DX002 (ip), vehicle: other 96 % of control | dose: 24.0 mg/kg/injection, schedule: Q04DX002 (ip), vehicle: Klucel (hydroxypropylcellulose) (HPC) 103 % of control | dose: 25.0 mg/kg/injection, schedule: Q04DX002 (ip), vehicle: other 91 % of control | dose: 100.0 mg/kg/injection, schedule: Q04DX002 (ip), vehicle: other 96 % of control | dose: 200.0 mg/kg/injection, schedule: Q04DX002 (ip), vehicle: other 96 % of control

CC(C)N(CCCC#N)C(C)C
inactive: [1] 91 % of control | [2] 102 % of control | [3] 100 % of control

NCCN
inactive: dose: 177.0 mg/kg/injection, schedule: Q01DX009 (ip), vehicle: saline 115 % of control | dose: 266.0 mg/kg/injection, schedule: Q01DX009 (ip), vehicle: saline 96 % of control | [4] 105 % of control

COc1ccc(NCc2ccc(C)cc2)cc1
inactive: [5] 91 % of control | dose: 200.0 mg/kg/injection, schedule: Q01DX009 (ip), vehicle: Klucel (hydroxypropylcellulose) (HPC) 94 % of control | dose: 400.0 mg/kg/injection, schedule: Q01DX009 (ip), vehicle: Klucel (hydroxypropylcellulose) (HPC) 91 % of control

Cc1ccc2no[n+]([O-])c2c1[N+](=O)[O-]
inactive: [1] 93 % of control | [2] 97 % of control | [3] 98 % of control

O=C1C=C(N2CC2)c2ccccc2C1=O
inactive: dose: 5.0 mg/kg/injection, schedule: Q01DX009 (ip), vehicle: saline with Tween-80 105 % of control | dose: 10.0 mg/kg/injection, schedule: Q01DX009 (ip), vehicle: saline with Tween-80 100 % of control

Cc1nn(C2CC(O)C(O)C(CO)O2)c(=O)[nH]c1=O (stereo unspecified)
inactive: [6] 95 % of control | [7] 86 % of control | [4] 86 % of control

CSc1ccc2c(c1)N(CCCN(C)C)c1ccccc1S2
inactive: [8] 100 % of control | [9] 107 % of control and 112 % of control | [10] 97 % of control and 124 % of control | [11] 100 % of control and 124 % of control

CC(=O)OCC(=O)[C@@]12OC(C)(C)O[C@@H]1C[C@H]1[C@@H]3CC(C=O)=C4C=C(OCCCl)CC[C@]4(C)[C@@]3(F)[C@@H](O)C[C@@]12C
inactive: dose: 25.0 mg/kg/injection, schedule: Q04DX003 (ip), vehicle: saline with Tween-80 111 % of control | dose: 50.0 mg/kg/injection, schedule: Q04DX003 (ip), vehicle: saline with Tween-80 112 % of control | dose: 100.0 mg/kg/injection, schedule: Q04DX003 (ip), vehicle: saline with Tween-80 115 % of control | dose: 200.0 mg/kg/injection, schedule: Q04DX003 (ip), vehicle: saline with Tween-80 110 % of control | dose: 400.0 mg/kg/injection, schedule: Q04DX003 (ip), vehicle: saline with Tween-80 109 % of control

C1CC[N-]CC1.CC(=N\O)/C(C)=N/O.CC(=N\O)/C(C)=N/O.[CH3-].[Co+2]
inactive: [12] 105 % of control | [13] 91 % of control | [5] 88 % of control

Cc1cnnc2ccccc12
inactive: dose: 12.5 mg/kg/injection, schedule: Q01DX009 (ip), vehicle: saline with Tween-80 91 % of control | [1] 98 % of control | [2] 95 % of control

CCNCC#CCNCC
inactive: [6] 107 % of control | [7] 94 % of control

NC(N)=NCCCOc1ccccc1
inactive: dose: 3.12 mg/kg/injection, schedule: Q01DX009 (ip), vehicle: Klucel (hydroxypropylcellulose) (HPC) 102 % of control | dose: 6.25 mg/kg/injection, schedule: Q01DX009 (ip), vehicle: Klucel (hydroxypropylcellulose) (HPC) 108 % of control | dose: 12.5 mg/kg/injection, schedule: Q01DX009 (ip), vehicle: Klucel (hydroxypropylcellulose) (HPC) 113 % of control | [12] 100 % of control | [13] 100 % of control

CCCCCCCCCCCCCCCCP(=O)(OCCOCCCCCC)OCCOCCCCCC
inactive: [8] 103 % of control | [9] 116 % of control | [10] 109 % of control | [11] 102 % of control | [6] 94 % of control

Cc1cn(C2CC(F)C(CO)O2)c(=O)[nH]c1=O (stereo unspecified)
inactive: [9] 108 % of control | [10] 103 % of control | [11] 110 % of control | [6] 115 % of control | [7] 97 % of control

Cc1c(CNc2ccc(C(=O)NC(CC(=O)O)C(=O)O)cc2)ccc2nc(N)nc(N)c12 (stereo unspecified)
inactive: dose: 0.02 mg/kg/injection, schedule: Q01DX009 (ip), vehicle: saline with Tween-80 94 % of control | dose: 0.04 mg/kg/injection, schedule: Q01DX009 (ip), vehicle: saline with Tween-80 94 % of control | dose: 0.04 mg/kg/injection, schedule: Q01DX009 (ip), vehicle: saline 103 % of control | dose: 0.09 mg/kg/injection, schedule: Q01DX009 (ip), vehicle: saline with Tween-80 86 % of control | dose: 0.09 mg/kg/injection, schedule: Q01DX009 (ip), vehicle: saline 100 % of control | dose: 0.18 mg/kg/injection, schedule: Q01DX009 (ip), vehicle: saline with Tween-80 97 % of control | dose: 0.19 mg/kg/injection, schedule: Q01DX009 (ip), vehicle: saline 111 % of control | dose: 0.78 mg/kg/injection, schedule: Q01DX009 (ip), vehicle: saline with Tween-80 118 % of control

O=[N+]([O-])OCc1c(Cl)nc(Cl)c(Cl)c1Cl
inactive: dose: 15.0 mg/kg/injection, schedule: Q01DX009 (ip), vehicle: Klucel (hydroxypropylcellulose) (HPC) 111 % of control | dose: 30.0 mg/kg/injection, schedule: Q01DX009 (ip), vehicle: Klucel (hydroxypropylcellulose) (HPC) 108 % of control | dose: 60.0 mg/kg/injection, schedule: Q01DX009 (ip), vehicle: Klucel (hydroxypropylcellulose) (HPC) 88 % of control

CC[CH](C)[Hg][c]1cccc2ccccc12 (stereo unspecified)
inactive: [12] 105 % of control | [13] 91 % of control
